Data as given in patent publication US11952582B2, “Herbicide-resistance gene and application thereof in plant breeding” (priority 2017, dated 2024).
Entries after “also recorded” stand apart in the source; their conditions may differ.

Key:
[1] = test system: Arabidopsis WT, OE At, OE Pa, OE M3 seedlings; assay: Herbicide resistance after Arabidopsis germination (seedlings transferred to herbicide medium); assay type: in vivo, Arabidopsis thaliana
Procedure: In order to further confirm the correctness of the results obtained in the germination test, an analysis experiment on herbicide resistance after Arabidopsis germination was conducted. Arabidopsis seedlings germinated by OE At, OE Pa, OE M3 and WT for 7 days were transferred to ½ MS medium containing different concentrations (0, 100, 250, 500, and 1000 nM) of mesotrione and grown for 1 week. 5 seedlings were treated per genotype with 3 biological replicates. After 1 week, the effect of the herbicide treatment (i.e., albino) was photographed.

[2] = test system: Arabidopsis WT (Col0), OE At, OE Pa, OE M3 lines; assay: Arabidopsis seed germination test on herbicide-containing 1/2 MS medium; assay type: in vivo, Arabidopsis thaliana; conditions: 2 weeks
Procedure: In order to evaluate the resistance of different HPPD overexpression lines to herbicides, Arabidopsis seed germination tests were performed on media containing different concentrations of herbicides. T3 generation Arabidopsis seeds and Co10 (WT) seeds were performed steam surface sterilization (concentrated HCl: NaClO=1:5, v/v) for 3 h. Seeds of OE At (OE At #1, OE At #2), OE Pa (OE Pa #1, OE Pa #2), OE M3 (OE M3 #1, OE M3 #2) and Co10 (WT) were dibbled together in ^1/2 MS medium (0.5 x MS salt, 1% sucrose and 0.8% agar) in a 24-well plate, and the medium contained different concentrations (0, 31.25, 62.5, 125, 500 and 2000 nM) of mesotrione (Sigma Aldrich, USA) and sulcotrione (Sigma Aldrich, USA). Then, the plate dibbled seeds was placed in the dark at 4° C. for 3 d, and then transferred to a growth chamber at 22° C. (16 h light/8 h dark) for 2 weeks. Three biological replicates were performed per treatment per species. After 2 weeks, the test results were photographed.

[3] = test system: Arabidopsis WT, OE At, OE Pa, OE M3 plants; assay: Total chlorophyll and carotenoid content of Arabidopsis rosette leaves; assay type: in vivo, Arabidopsis thaliana
Procedure: The leaves (rosette leaves) of 2 week-old plants grown in ^1/2 MS medium containing different concentrations (0, 100, 250, 500 and 1000 nM) of mesotrione were collected, including leaves of OE At, OE Pa, OE M3 and WT. The total chlorophyll and carotenoid were extracted and the content thereof was detected by referring to the method of Lichtenthaler HK (1987). All experiments were repeated biologically 3 times, and the average value was taken.

PaHPPD-SDM = PaHPPD-SDM (Pseudomonas aeruginosa, UniProt Q9I576, A156V/E349K/R282S); conditions: higher doses in the range 0-60 of herbicide
Description: Specifically, the presence of tyrosine aminotransferase in E. coli DH5a can catalyze the production of p-hydroxyphenylpyruvate (4-HPP) from tyrosine, which is used as a substrate for HPPD to produce homogentisic acid (HGA). After further oxidation and polymerization, a brown substance is produced. The addition of HPPD inhibitors will inhibit this reaction, thereby reducing the production of pigment. Therefore, the gradation of pigment can be used as an inhibition index of HPPD activity. […] Through heterologous expression of HPPD mutant genes from different species in E. coli DH5α, the resistance characteristics of E. coli DH5α-mutated gene to triketone herbicides were analyzed by detecting the absorption value of pigment at 405 nm (FIGS. 2-6, 8 and 9).
The PaHPPD mutants obtained by random mutation was cloned into E. coli cells together with wild-type PaHPPD and AtHPPD for comparation and screening.
The bacteria solution shaking cultured overnight at 37° C. was centrifuged, and 200 μL of supernatant was transferred to a sterile 96-well plate (microplate with high throughput characteristics) using a 200 μL pipette on an ultra-clean workbench. The pigment content was measured with a microtiter plate reader at a wavelength of 405 nm (OD405 nm), and the HPPD activity was evaluated according to the size of the OD value.
Then the obtained PaHPPD-SDM mutant was compared with its parental mutants (PaHPPD-M3, PaHPPD-DS18, and PaHPPD-DS73) to understand their ability of brown pigmentation in the presence of triketone herbicides at different doses (0-60 μM). The calculation formula of HPPD activity (%) is as follows: HPPD activity(%)=(Am/Ac)×100
Wherein Am refers to the average value of the absorbance at a specific herbicide dose, and Ac refers to the average value of the absorbance without the herbicide.

[4] = test system: WT (William 82), OE GmHPPD and OE PaHPPD-SDM T1 soybean plants; assay: Soybean resistance to herbicide at whole plant level (spraying); assay type: in vivo; conditions: 20 μM sprayed twice
Procedure: 20 μM mesotrione (prepared with 0.1% Tween-20) and 0.1% Tween-20 were spray to 4 week-old transgenic T1 generation OE SDMHPPD, T1 generation OE GmHPPD and WT soybean which were grown in an artificial climate chamber (27° C., […], light/dark) for the first time. A second spray was applied after 1 week. Then the phenotype of the plants was observed very day, and the experimental result was recorded by taking photos 2 weeks after the treatment.

[5] = test system: WT and T0 OE SDM rice seedlings; assay: Rice resistance to herbicide at pot level (spray); assay type: in vivo; conditions: 200 μM spray, 21 d (3 weeks)
Procedure: Transgenic T0 generation OE SDM and WT rice seedlings were planted in pots containing soil and placed in an artificial climate room (30° C. 16 h light/28° C. 8 h dark) for growth. 3 weeks later, when the rice seedlings reached a height of 15-20 cm, 200 μM mesotrione (prepared with 0.1% Tween-20) and 0.1% Tween-20 were sprayed to OE SDM and WT rice seedlings, respectively. Then, the phenotype should be observed every week. The oxidative stress index was measured 1 week after the treatment, the chlorophyll content of the leaves was measured 2 weeks after the treatment, and the experimental result was photographed 3 weeks after the treatment.

[6] = test system: WT and T0 OE SDM rice leaves; assay: Malondialdehyde content in rice leaves; assay type: in vivo; conditions: 200 μM spray, 1 week
Procedure: Malondialdehyde (MDA) is an important marker of the degree of oxide film damage. The previous method (Heath and Packer, 1968) for the determination of malondialdehyde content was referred with slight modifications. 1 g of rice leaves were accurately weighed and place to a pre-cooling mortar. 10 mL of pre-cooling 10% trichloroacetic acid (TCA, v/v) was added and grind thoroughly. Then the lapping solution was transfered to a 10 mL centrifuge tube and centrifuged at 4000 rpm for 10 min (4° C.). 2 mL of supernatant was pipetted and mixed with an equal volume of 0.6% 2-Thiobarbituric acid (TBA, v/v), and incubated at 100° C. for 15 min.
Then the reaction solution was cooled at room temperature. The cooled reaction solution was centrifuged at 4000 rpm for 10 min (4° C.). The supernatant was taken and measured absorbance at wavelengths of 450 nm, 532 nm and 600 nm using ultraviolet spectrophotometers, respectively. Each sample was repeated 3 times. The unit of MDA content is nmol g^−1 FW.

[7] = test system: Arabidopsis WT, OE At, OE Pa, OE M3 potted plants; assay: Herbicide resistance of Arabidopsis at pot level (spray); assay type: in vivo, Arabidopsis thaliana
Procedure: 2 week-old Arabidopsis seedlings of WT, OE At, OE Pa, and OE M3 were transplanted into soil-filled pots (12 seedlings per pot) and growth in a phytotron (22° C., 14 h light/10 h dark, 120 μmol m^−2 s^−1 light intensity) for 4 weeks. Then, 5 μM mesotrione solution (prepared with 0.05% Tween-20) were sprayed twice with a treatment interval of 3 days, and compared with the control treatment (0.05% Tween-20 without herbicide). The spray treatment was biologically repeated 3 times. Two weeks after the first herbicide spray, the test results were photographed.

[8] = test system: WT and T0 OE SDM rice seedlings; assay: Total chlorophyll content in rice leaves; assay type: in vivo; conditions: 200 μM
Procedure: Referring to the method of Lichtenthaler HK (1987), chlorophyll was extracted from the leaves of wild-type and T0 generation OE SDM rice seedlings which were sprayed with 200 μM mesotrione (prepared with 0.1% Tween-20) and sprayed with control 0.1% Tween-20 after 2 weeks and its content was determined. All experiments were repeated biologically 3 times, and the average value was taken.

PaHPPD-SDM, sequence (Q9I576 whole entry A156V/R282S/E349K): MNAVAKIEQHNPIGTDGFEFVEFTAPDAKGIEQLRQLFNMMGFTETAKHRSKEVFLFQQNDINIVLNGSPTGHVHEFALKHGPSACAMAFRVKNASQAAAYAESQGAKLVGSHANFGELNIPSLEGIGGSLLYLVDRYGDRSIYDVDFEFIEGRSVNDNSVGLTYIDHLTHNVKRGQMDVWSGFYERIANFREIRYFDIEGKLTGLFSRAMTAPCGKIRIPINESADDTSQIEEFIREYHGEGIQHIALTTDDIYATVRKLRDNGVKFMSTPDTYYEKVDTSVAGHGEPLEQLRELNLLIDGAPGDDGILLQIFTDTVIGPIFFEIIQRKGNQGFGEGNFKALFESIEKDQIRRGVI

SMILES: CS(=O)(=O)c1ccc(C(=O)C2C(=O)CCCC2=O)c([N+](=O)[O-])c1 [mesotrione]
- cotyledon phenotype ([1]; OE At and OE Pa, 250 nM, 1 week): albino
- concentration at which seedlings grew well (maximum tolerance concentration of seedlings) ([1]; OE M3, 7-day seedlings, 1 week on 1/2 MS medium): 250 nM
- concentration at which cotyledons were albino ([1]; WT, 7-day seedlings, 1 week on 1/2 MS medium): 100 nM
- concentration giving albino death / severely inhibited growth ([2]; OE At (two lines) and WT): 31.25 nM
- concentration at which seedlings grow normally ([2]; OE Pa (two lines), T3 seeds): 62.5 nM
- total chlorophyll and carotenoid content of leaves with the increase of herbicide concentration ([3]; WT, OE At, OE Pa and OE M3, 0-1000 nM in 1/2 MS medium): decreased
- total chlorophyll and carotenoid content of OE M3 compared with WT, OE At and OE Pa ([3]; same herbicide concentration): significantly higher
- resistance by HPPD activity (%) compared with WT, PaHPPD-M3, PaHPPD-DS18 and PaHPPD-DS73 (PaHPPD-SDM): improved the resistance
- phenotype after whole plant spraying ([4]; OE PaHPPD-SDM T1 line): grew normally
- phenotype after whole plant spraying ([4]; wild-type William 82 and OE GmHPPD T1 line): albino symptom and growth retardation
- phenotype of leaves/plants ([5]; OE SDM rice line (T0)): grew well; also recorded: very small visible signs of damage
- phenotype of leaves/plants ([5]; WT rice): albino and the growth was inhibited until death; also recorded: withered and died
- MDA content in WT rice leaves compared with OE SDM rice leaves [6]: significantly higher
- maximum tolerance concentration under potted conditions ([7]; Arabidopsis overexpressing PaHPPD-M3, sprayed on fully expanded leaves): 5 µM
- phenotype ([7]; OE M3 line, 5 μM sprayed twice, 2 weeks after first spray): grows well
- phenotype of new leaves of seedlings ([7]; WT, OE At and OE Pa lines, 5 μM sprayed twice, 2 weeks after first spray): completely albino
- chlorophyll content of leaves after treatment ([8]; OE PaHPPD-SDM rice): did not decrease significantly
- total chlorophyll content in leaves compared with treated OE SDM rice ([8]; WT rice, 2 weeks): greatly reduced
